Six compounds from US20220242846A1, “ISOINDOLINONE COMPOUNDS” (Monte Rosa Therapeutics AG, priority 2019, published 2022) can be followed below.

Where two headings read alike, the source gives them in different places. A value given as a limit tells only on which side of the number the result lay.

The target in this assay is GSPT1 (Homo sapiens, UniProt P15170+Q96SW2). Put plainly: Immunofluorescence assay for GSPT1 degradation in CAL-51 cells. As to conditions: compound treatment 6 hours. In kind it is cell-based. Details: CAL-51 cells were purchased from DSMZ (cat. Number ACC302); endogenous in cells; host or cells: CAL-51 (DSMZ ACC302). A digest of the protocol:
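CAL-51 cells on fibronectin-coated plates treated 6 h with compound (30 μM to 0.1 nM); fixed, stained with anti-GSPT1/Alexa-488, phalloidin and DAPI, imaged by high-content microscopy. Mean GSPT1 intensity per cell normalized to controls; DC50 by non-linear regression.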

The mark [1] stands for this setting: read-out: Code: activity for GSPT1 degradation (DC50).

Sequence of GSPT1 (P15170 whole entry): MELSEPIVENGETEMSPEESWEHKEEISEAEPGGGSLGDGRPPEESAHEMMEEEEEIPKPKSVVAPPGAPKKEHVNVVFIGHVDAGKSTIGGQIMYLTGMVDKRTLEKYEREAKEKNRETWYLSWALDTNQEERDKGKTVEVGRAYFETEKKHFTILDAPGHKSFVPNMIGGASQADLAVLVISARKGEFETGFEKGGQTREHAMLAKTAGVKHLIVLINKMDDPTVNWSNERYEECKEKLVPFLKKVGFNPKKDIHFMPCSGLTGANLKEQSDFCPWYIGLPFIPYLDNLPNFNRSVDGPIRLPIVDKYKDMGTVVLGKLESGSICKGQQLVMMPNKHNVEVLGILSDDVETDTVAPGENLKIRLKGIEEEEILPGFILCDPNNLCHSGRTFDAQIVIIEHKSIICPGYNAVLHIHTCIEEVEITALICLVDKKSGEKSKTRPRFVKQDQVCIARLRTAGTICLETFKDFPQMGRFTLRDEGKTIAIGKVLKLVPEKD
Sequence of GSPT1 (Q96SW2 whole entry): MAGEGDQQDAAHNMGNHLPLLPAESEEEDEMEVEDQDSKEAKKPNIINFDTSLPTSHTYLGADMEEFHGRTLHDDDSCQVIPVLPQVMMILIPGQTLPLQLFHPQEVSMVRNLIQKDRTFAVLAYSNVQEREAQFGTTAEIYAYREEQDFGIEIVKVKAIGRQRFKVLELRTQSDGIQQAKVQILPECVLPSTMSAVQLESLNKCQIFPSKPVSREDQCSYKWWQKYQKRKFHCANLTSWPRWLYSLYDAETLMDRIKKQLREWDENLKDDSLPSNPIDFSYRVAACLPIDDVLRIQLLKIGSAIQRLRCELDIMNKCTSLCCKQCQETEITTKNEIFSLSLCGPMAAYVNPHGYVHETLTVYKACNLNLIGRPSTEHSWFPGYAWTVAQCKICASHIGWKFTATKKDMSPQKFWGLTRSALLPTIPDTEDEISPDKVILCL
Sequence of GSPT1 (Q16531 2-1140 partner limits assumed): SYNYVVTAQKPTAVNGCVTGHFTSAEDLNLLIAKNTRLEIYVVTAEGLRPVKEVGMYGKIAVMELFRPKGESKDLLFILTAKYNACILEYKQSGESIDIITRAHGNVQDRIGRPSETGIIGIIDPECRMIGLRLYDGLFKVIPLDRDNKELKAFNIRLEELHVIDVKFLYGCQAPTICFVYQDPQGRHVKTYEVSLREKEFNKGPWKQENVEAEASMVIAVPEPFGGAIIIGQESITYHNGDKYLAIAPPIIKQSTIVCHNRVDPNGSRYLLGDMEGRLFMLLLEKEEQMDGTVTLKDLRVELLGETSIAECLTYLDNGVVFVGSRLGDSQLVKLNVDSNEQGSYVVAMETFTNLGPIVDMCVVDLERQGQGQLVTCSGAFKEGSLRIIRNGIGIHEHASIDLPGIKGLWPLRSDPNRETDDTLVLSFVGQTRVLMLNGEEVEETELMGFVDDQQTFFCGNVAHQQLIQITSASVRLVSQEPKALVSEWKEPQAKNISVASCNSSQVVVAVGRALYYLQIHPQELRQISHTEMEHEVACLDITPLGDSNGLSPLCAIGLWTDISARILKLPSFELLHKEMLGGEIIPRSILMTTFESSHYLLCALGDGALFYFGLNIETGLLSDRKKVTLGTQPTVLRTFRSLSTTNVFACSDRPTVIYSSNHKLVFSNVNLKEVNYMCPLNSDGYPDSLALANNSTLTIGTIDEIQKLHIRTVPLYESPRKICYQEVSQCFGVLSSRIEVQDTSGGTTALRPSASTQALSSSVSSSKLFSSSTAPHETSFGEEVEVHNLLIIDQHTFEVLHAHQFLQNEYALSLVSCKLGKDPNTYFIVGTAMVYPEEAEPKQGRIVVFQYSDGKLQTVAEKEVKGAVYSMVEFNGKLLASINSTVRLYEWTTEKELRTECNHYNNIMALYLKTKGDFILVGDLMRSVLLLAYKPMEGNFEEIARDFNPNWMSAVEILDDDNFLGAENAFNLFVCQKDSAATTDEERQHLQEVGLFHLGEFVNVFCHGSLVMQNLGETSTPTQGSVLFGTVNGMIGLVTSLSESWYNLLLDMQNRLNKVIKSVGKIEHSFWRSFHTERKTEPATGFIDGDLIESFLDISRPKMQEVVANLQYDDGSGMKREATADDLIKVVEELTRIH

Regarding `Cc1cc(C)c(NC(=O)NCc2ccc3c(c2)C(=O)N(C2CCC(=O)NC2=O)C3)cc1Cl` (stereo not shown) [Compound 85], the DC50 by setting is: (GSPT1 degradation, read-out: DC50) 274 nM; under setting [1], 100 to 300 nM.
For the compound `O=C1CCC(N2Cc3ccc(CNC(=O)Nc4cccc(CN5CCOCC5)c4)cc3C2=O)C(=O)N1` (stereo not shown) [Compound 105], the DC50 under setting [1] was over 300 nM.
Still for that read-out and setting: the value for `Cc1ccc(NC(=O)NCc2ccc3c(c2)C(=O)N(C2CCC(=O)NC2=O)C3)c(Cl)c1Cl` (stereo not shown) [Compound 87] was over 300 nM.
`Cc1c(Cl)cc(NC(=O)NCc2ccc3c(c2)C(=O)N(C2CCC(=O)NC2=O)C3)cc1CC1COCOC1` (stereo not shown) [Compound 132]: the DC50 under setting [1] is at most 100 nM.
In the case of `Cc1c(Cl)cc(NC(=O)NCc2ccc3c(c2)C(=O)N(C2CCC(=O)NC2=O)C3)cc1CN(C)C` (stereo not shown) [Compound 75], the DC50 under setting [1] lay within 100 to 300 nM.
With `Cc1c(Cl)cc(NC(=O)NCc2ccc3c(c2)C(=O)N(C2CCC(=O)NC2=O)C3)cc1CN1CCOCC1` (stereo not shown) [Compound 82], the DC50 under setting [1] is at most 100 nM.

By DC50 is commonly meant the midpoint of the concentration-degradation curve.
